Assay results taken from patent US20080125496A1, “ANTIMICROBIAL FLAVOR AND ORAL CARE COMPOSITION CONTAINING THE SAME” (TAKASAGO INTERNATIONAL CORPORATION, priority 2001, published 2008).
≈ marks a conversion by molar mass, not a printed value. Where two headings read alike, the source gives them in different places.

Tests used:
Assay type in all cases: cell-based
[1] = test system: Streptococcus mutans JCM 5175; assay: MIC by agar plate dilution method, Su-1; conditions: for MIC: Streptococcus mutans, read-out: MIC Su-1 (caries-related bacteria)
Experimental: (§1) The minimum inhibitory activities of the antimicrobial flavors of the invention on anaerobic oral bacteria were measured by an agar plate dilution method.
(§2) All the test strains were obtained from Riken (The Institute of Physical and Chemical Research). The names and abbreviations of the strains are shown in Table 1 below (The abbreviations are used in the following description).
(§3) Each test microorganism kept frozen (−80° C.) in glycerol at a concentration of 25% was thawed. A 100 μl portion of the suspension was inoculated into 10 ml of a liquid medium. A Gifu university anaerobic medium (GAM) (Nissui Pharmaceutical Co., Ltd) having added thereto Hemin (Tokyo Kasei) and Menadione (Sigma) was used for Su-1 and Fn-1. Schaedler Broth (BBL) having added thereto Hemin and Menadione was used for the other strains. The culture was anaerobically incubated at 37° C. for 72 hours by using BBL Gas Pack Anaerobic System. After the cultivation, the microbial cell suspension of Su-1 was 10-fold diluted to prepare an inoculum. The cultures of Fn-1 and Pg-1 were used as such as an inoculum. The cultures of Pt-1, Aa-1, and Av-1 were subjected to centrifugation, and the separated microbial cells were suspended in 2 ml of sterilized physiological saline to prepare the respective inoculums.
(§4) An agar medium prepared by adding 2% agar (Difco), Hemin, and Menadione to Trypticase Soy Broth (BBL) was used. A test sample (antimicrobial flavor) was dissolved in ethanol to prepare 2-fold serial dilutions. To 10 ml of the agar medium was added 100 μl of each dilution and stirred well. The agar medium was transferred to a petri dish (diameter: 9 cm) and solidified at room temperature. The solidified agar medium was inoculated with 5 μl of the inoculum by means of a multipoint inoculator (Microplanter MIT-P27, supplied by Sakuma Seisakusho), followed by culturing at 37° C. for 72 hours under anaerobic conditions. The growth of the test microorganism was compared with a blank petri dish (the agar medium to which 100 μl of ethanol had been added). The lowest sample concentration that inhibited growth was taken as MIC (ppm).
(§5) Antimicrobial activities (MIC; ppm) of the aromahygiene base (AHB) prepared in (1) and the antimicrobial flavor compositions prepared in (2) (Examples 2-1 to 2-3) and Comparative Examples 2-1 to 2-3 were measured in the same manner as in Example 1 (2).

[2] = test system: Actinomyces naeslundii JCM 8350; assay: MIC by agar plate dilution method, Aa-1; conditions: for MIC: Actinomyces naeslundii, read-out: MIC Aa-1 (caries-related bacteria)
Experimental: as §1, §2, §3, §4, §5

[3] = test system: Actinomyces viscosus JCM 8352; assay: MIC by agar plate dilution method, Av-1; conditions: for MIC: Actinomyces viscosus, read-out: MIC Av-1 (caries-related bacteria)
Experimental: as §1, §2, §3, §4, §5

[4] = test system: Fusobacterium nucleatum JCM 6328; assay: MIC by agar plate dilution method, Fn-1; conditions: for MIC: Fusobacterium nucleatum, read-out: MIC Fn-1 (paradentosis-related bacteria)
Experimental: as §1, §2, §3, §4, §5

[5] = test system: Porphyromonas gingivalis JCM 8525; assay: MIC by agar plate dilution method, Pg-1; conditions: for MIC Pg-1 (paradentosis-related bacteria; head Fg-1 in Tables 2 and 3): agar medium, 37° C., 72 hours, anaerobic conditions; for MIC: Porphyromonas gingivalis, JCM8525, 72 h, read-out: MIC Pg-1 (paradentosis-related bacteria; head Fg-1 in Tables 2 and 3)
Experimental: as §1, §2, §3, §4, §5

[6] = test system: Prevotella intermedia JCM 6322; assay: MIC by agar plate dilution method, Pt-1; conditions: for MIC: Prevotella intermedia, read-out: MIC Pt-1 (paradentosis-related bacteria)
Experimental: as §1, §2, §3, §4, §5

[7] = agar medium, 37° C., 72 hours, anaerobic conditions

| Molecule | MIC Su-1 (caries-related bacteria) [1, 7] | MIC Aa-1 (caries-related bacteria) [2, 7] | MIC Av-1 (caries-related bacteria) [3, 7] | MIC Fn-1 (paradentosis-related bacteria) [4, 7] | MIC Pg-1 (paradentosis-related bacteria; head Fg-1 in Tables 2 and 3) [5] | MIC Pt-1 (paradentosis-related bacteria) [6, 7] | MIC ([1]; JCM5175, agar medium, 37° C., 72 hours, anaerobic conditions) | MIC ([2]; JCM8350, agar medium, 37° C., 72 hours, anaerobic conditions) | MIC ([3]; JCM8352, agar medium, 37° C., 72 hours, anaerobic conditions) | MIC ([4]; JCM6328, agar medium, 37° C., 72 hours, anaerobic conditions) | MIC [5] | MIC ([6]; JCM6322, agar medium, 37° C., 72 hours, anaerobic conditions) | MIC ([1]; JCM5175, 72 h) | MIC ([2]; JCM8350, 72 h) | MIC ([3]; JCM8352, 72 h) | MIC ([4]; JCM6328, 72 h) | MIC ([6]; JCM6322, 72 h) |
| --- | --- | --- | --- | --- | --- | --- | --- | --- | --- | --- | --- | --- | --- | --- | --- | --- | --- |
| CC/C(=C\C[C@H]1CC=C(C)C1(C)C)CO [Levosandol] | 125 ppm | 62.5 ppm | 62.5 ppm | 62.5 ppm | 31.3 ppm | 31.3 ppm | – | – | – | – | – | – | – | – | – | – | – |
| CC(C=O)Cc1ccc(C(C)(C)C)cc1 (stereo not drawn) [Lilial] | 500 ppm | 125 ppm | 500 ppm | 500 ppm | 62.5 ppm | 62.5 ppm | – | – | – | – | – | – | – | – | – | – | – |
| COC(=O)c1c(C)cc(O)c(C)c1O [Methyl atrarate] | >1000 ppm | 62.5 ppm | 62.5 ppm | 125 ppm | 31.3 ppm | 62.5 ppm | – | – | – | – | – | – | – | – | – | – | – |
| CCC(O)/C(C)=C/C1(C)CC2C=CC1C2 (stereo not drawn) [Methyl sandeflor] | 500 ppm | 250 ppm | 125 ppm | 250 ppm | 62.5 ppm | 62.5 ppm | – | – | – | – | – | – | – | – | – | – | – |
| C=CC(C)(O)CC/C=C(\C)CCC=C(C)C (stereo not drawn) [Neroridol] | 500 ppm | 125 ppm | 125 ppm | 50 ppm | 31.3 ppm | 31.3 ppm | – | – | – | – | – | – | – | – | – | – | – |
| CC(=O)c1cc2c(cc1C)C(C)(C)C(C)C2(C)C (stereo not drawn) [Phantolid] | >1000 ppm | >1000 ppm | >1000 ppm | >1000 ppm | 31.3 ppm | 62.5 ppm | – | – | – | – | – | – | – | – | – | – | – |
| O=CCc1ccccc1 [Phenylacetaldehyde] | – | – | – | – | – | – | > 1000 µg/mL | 500 µg/mL (≈ 4160 µM) | 250 µg/mL (≈ 2080 µM) | 1000 µg/mL (≈ 8320 µM) | 15.6 µg/mL (≈ 130 µM) | 15.6 µg/mL (≈ 130 µM) | – | – | – | – | – |
| CC1=CCC(CCC(C)C(C)O)C1(C)C (stereo not drawn) [Sandalore] | 250 ppm | 125 ppm | 125 ppm | 125 ppm | 31.3 ppm | 31.3 ppm | – | – | – | – | – | – | – | – | – | – | – |
| CC1=CCC(C/C=C(\C)CO)C1(C)C (stereo not drawn) [Santalinol] | 250 ppm | 62.5 ppm | 62.5 ppm | 125 ppm | 15.6 ppm | 31.3 ppm | – | – | – | – | – | – | – | – | – | – | – |
| CC(=O)c1cc2c(cc1C)C(C)(C)C(C)CC2(C)C (stereo not drawn) [Tonalid] | – | – | – | – | – | – | – | – | – | – | 15.6 µg/mL (≈ 60.4 µM) | – | > 1000 µg/mL | > 1000 µg/mL | > 1000 µg/mL | > 1000 µg/mL | 62.5 µg/mL (≈ 242 µM) |
| COc1ccccc1C=CC=O [o-Methoxycinnamic aldehyde] | 250 ppm | 250 ppm | 250 ppm | 250 ppm | 7.8 ppm | 62.5 ppm | – | – | – | – | – | – | – | – | – | – | – |
| Isocamphylcyclohexanol | 31.3 ppm | 31.3 ppm | 31.3 ppm | 31.3 ppm | 3.9 ppm | 3.9 ppm | – | – | – | – | – | – | – | – | – | – | – |
